Experimental data taken from patent US6908919B2, “Substituted polycyclic aryl and heteroaryl pyrazinones useful for selective inhibition of the coagulation cascade” (Pharmacia Corporation, priority 1999, dated 2005).
Where two headings read alike, the source gives them in different places.

Legend:
Human factor Xa = Human factor Xa (Homo sapiens, UniProt P00742); assay: Xa Assay; format: biochemical; parameters: purchased Enzyme Research Laboratories, South Bend Ind; conditions: for inhibition at 100 µM / % Inhibition Factor Xa at 100 μM: at 100 μM inhibitor
Sequence of Human factor Xa (P00742 41-179 limits assumed): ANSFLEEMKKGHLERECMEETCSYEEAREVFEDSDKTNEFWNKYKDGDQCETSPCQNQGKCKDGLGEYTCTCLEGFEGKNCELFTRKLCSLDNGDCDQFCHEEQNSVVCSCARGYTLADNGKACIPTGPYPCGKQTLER
Sequence of Human factor Xa (P00742 235-488 limits assumed): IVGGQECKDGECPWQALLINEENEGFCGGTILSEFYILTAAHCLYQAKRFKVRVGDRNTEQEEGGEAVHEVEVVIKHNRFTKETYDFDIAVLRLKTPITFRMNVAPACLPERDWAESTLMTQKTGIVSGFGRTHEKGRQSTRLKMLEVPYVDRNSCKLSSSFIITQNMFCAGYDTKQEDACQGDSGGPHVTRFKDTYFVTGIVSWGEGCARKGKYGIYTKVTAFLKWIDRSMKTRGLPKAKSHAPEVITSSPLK

[1] = target: T1, recombinant soluble tissue factor and recombinant human factor VIIa (TF-VIIa) (Homo sapiens, UniProt P08709); assay: TF-VIIa Assay; format: biochemical
T1 construct: conversion of coagulation factor VII to VIIa by Xa; purchased American Diagnostica, Greenwich Conn; host or cells: VIIa purchased; soluble TF made in house in E. coli
T1 sequence (P08709 61-212 limits assumed): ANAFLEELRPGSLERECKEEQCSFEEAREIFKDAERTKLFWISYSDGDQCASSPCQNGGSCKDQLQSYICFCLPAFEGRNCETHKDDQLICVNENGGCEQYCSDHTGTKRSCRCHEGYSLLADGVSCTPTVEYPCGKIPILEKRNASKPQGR
T1 sequence (P08709 213-466 limits assumed): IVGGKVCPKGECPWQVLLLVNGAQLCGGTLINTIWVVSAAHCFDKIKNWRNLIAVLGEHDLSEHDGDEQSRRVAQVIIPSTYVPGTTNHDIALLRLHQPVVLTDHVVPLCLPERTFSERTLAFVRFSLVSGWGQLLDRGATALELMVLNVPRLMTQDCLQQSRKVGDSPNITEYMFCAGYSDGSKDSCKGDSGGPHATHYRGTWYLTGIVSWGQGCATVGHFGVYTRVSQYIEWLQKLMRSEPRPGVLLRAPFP
T1 sequence (P13726 33-251 partner limits assumed): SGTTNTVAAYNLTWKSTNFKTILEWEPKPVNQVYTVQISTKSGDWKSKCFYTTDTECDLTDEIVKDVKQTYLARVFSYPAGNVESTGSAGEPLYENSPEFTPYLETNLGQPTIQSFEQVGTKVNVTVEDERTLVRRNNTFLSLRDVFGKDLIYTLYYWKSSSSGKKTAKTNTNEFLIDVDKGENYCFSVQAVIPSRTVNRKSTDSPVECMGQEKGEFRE

Row | Structure (SMILES) | % Inhibition Factor Xa (30 µM) (Human factor Xa; at 30 µM inhibitor) | % Inhibition TF-VIIa (30 µM) ([1]; at 30 µM inhibitor) | IC50 ([1]; read-out: IC50 TF-VIIa) [nM] | inhibition at 100 µM (Human factor Xa) [%] | also measured
1 | N=C(N)c1ccc(CNC(=O)Cn2c(-c3ccccc3)c(Cl)nc(NCc3cccc(OC(F)(F)F)c3)c2=O)cc1 [1512-40] | 3% | 40% | – | – | –
2 | N=C(N)c1ccc(CNC(=O)Cn2c(-c3ccccc3)c(Cl)nc(NCc3c(F)cccc3C(F)(F)F)c2=O)cc1 [1512-44] | 6% | 43% | – | – | –
3 | Cc1cc(Cl)cc(Cl)c1CNc1nc(Cl)c(-c2ccccc2)n(CC(=O)NCc2ccc(C(=N)N)cc2)c1=O [1512-45] | 11% | 27% | – | – | –
4 | N=C(N)c1ccc(CNC(=O)Cn2c(Cc3ccccc3)c(Cl)nc(NCCc3ccccc3)c2=O)cc1 [Example 20] | 6% @ 30 | 41% @ 30 | – | – | –
5 | N=C(N)c1ccc(CNC(=O)Cn2c(-c3ccc(-c4ccccc4)cc3)c(Cl)nc(NCCc3cccnc3)c2=O)cc1 [Example 21] | – | – | – | – | % Inhibition Factor Xa (30 µM) (Human factor Xa): 21% @ 30; % Inhibition TF-VIIa (30 µM) [1]: 8% @ 30
6 | N=C(N)c1ccc(CNC(=O)Cn2c(-c3ccc(-c4ccccc4)cc3)c(Cl)nc(NCCc3ccc(Cl)cc3)c2=O)cc1 [Example 22] | – | – | – | – | % Inhibition Factor Xa (30 µM) (Human factor Xa): 13% @ 30; % Inhibition TF-VIIa (30 µM) [1]: 0% @ 30
7 | N=C(N)NCC#CCNC(=O)Cn1c(-c2ccccc2)cnc(NCCc2ccccc2)c1=O [Example 36] | 0% | 5% | – | – | –
8 | CC(C)Nc1nc(Cl)c(-c2cccc([N+](=O)[O-])c2)n(CC(=O)NCc2ccc(C(N)=NO)cc2)c1=O [Example 61] | 0% | 1% | – | – | –
9 | CC(=O)Nc1cccc(-c2c(Cl)nc(NC(C)C)c(=O)n2CC(=O)NCCc2ccc(C(=N)N)cc2)c1 [Example 68] | 6% | 32% | – | – | –
10 | Nc1cccc(-c2c(Cl)nc(NC3CCC3)c(=O)n2CC(=O)NCCc2ccccc2)c1 [Example 89] | 5% @ 30 | 5% @ 30 | – | – | –
11 | Nc1cccc(-c2c(Cl)nc(NC3CCC3)c(=O)n2CC(=O)NCc2ccccc2)c1 [Example 99] | 8% @ 30 | 6% @ 30 | – | – | –
12 | N=C(N)c1ccc(CNC(=O)Cn2c(-c3ccc(C(=N)N)cc3)c(Cl)nc(NC3CCC3)c2=O)cc1 [Example 113] | – | – | 6190 | – | IC50 (Human factor Xa): 14000 nM
13 | COC(=O)c1cc(N)cc(-c2c(Cl)nc(NC(C)C)c(=O)n2CC(=O)NCc2ccc(C(=N)N)cc2)c1 [Example 125] | – | – | 38 | 36 | –
14 | CC(C)Nc1nc(Cl)c(-c2cc(N)cc(C(N)=O)c2)n(CC(=O)NCc2ccc(C(=N)N)cc2)c1=O [Example 128-1] | – | – | 22 | 25 | –
15 | CC(C)Nc1nc(Cl)c(-c2cc(N)cc(C(=O)N(C)Cc3ccccc3)c2)n(CC(=O)NCc2ccc(C(=N)N)cc2)c1=O [Example 128-2] | – | – | 25.6 | 41 | –
16 | CC(C)Nc1nc(Cl)c(-c2cc(N)cc(C(=O)NC(C)c3ccccc3)c2)n(CC(=O)NCc2ccc(C(=N)N)cc2)c1=O (centres unmarked) [Example 128-3] | – | – | 8.2 | 40 | –
17 | CC(C)Nc1nc(Cl)c(-c2cc(N)cc(C(=O)NCc3ccc(Cl)cc3Cl)c2)n(CC(=O)NCc2ccc(C(=N)N)cc2)c1=O [Example 128-5] | – | – | 84.7 | – | % Inhibition Factor Xa at 100 μM (Human factor Xa): 43% at 100 μM
18 | CC(C)Nc1nc(Cl)c(-c2cc(N)cc(C(=O)NCc3ccc(C(C)(C)C)cc3)c2)n(CC(=O)NCc2ccc(C(=N)N)cc2)c1=O [Example 128-7] | – | – | 242 | 40 | –
19 | CC(C)Nc1nc(Cl)c(-c2cc(N)cc(C(=O)NCc3ccc(Br)cc3)c2)n(CC(=O)NCc2ccc(C(=N)N)cc2)c1=O [Example 128-8] | – | – | 67 | – | % Inhibition Factor Xa at 100 μM (Human factor Xa): 44% at 100 μM
20 | CC(C)Nc1nc(Cl)c(-c2cc(N)cc(C(=O)NCc3ccccc3)c2)n(CC(=O)NCc2ccc(C(=N)N)cc2)c1=O [Example 128-9] | – | – | 7 | 36 | –
21 | CC(C)CNC(=O)c1cc(N)cc(-c2c(Cl)nc(NC(C)C)c(=O)n2CC(=O)NCc2ccc(C(=N)N)cc2)c1 [Example 128-14] | – | – | 7.4 | 24 | –
22 | COc1ccc(CCNC(=O)c2cc(N)cc(-c3c(Cl)nc(NC(C)C)c(=O)n3CC(=O)NCc3ccc(C(=N)N)cc3)c2)cc1 [Example 128-20] | – | – | 33 | 39 | –
23 | CC(CNc1nc(Cl)c(-c2cccc(N)c2)n(CC(=O)NCc2ccc(C(=N)N)cc2)c1=O)C(=O)O (centres unmarked) [Example 129] | – | – | – | 22 | IC50 ([1]; cell adds 'at 100 μM'): 58 nM
24 | CC(CC(=O)O)Nc1nc(Cl)c(-c2cccc(N)c2)n(CC(=O)NCc2ccc(C(=N)N)cc2)c1=O (centres unmarked) [Example 130] | – | – | – | – | % Inhibition Factor Xa at 100 μM (Human factor Xa): 24% at 100 μM; IC50 ([1]; read-out: IC50 TF-VIIa, cell printed 'at 100 μM' without %, cell adds 'at 100 μM'): 180 nM
25 | C[C@H](Nc1nc(Cl)c(-c2cccc(N)c2)n(CC(=O)NCc2ccc(C(=N)N)cc2)c1=O)C(=O)O [Example 135] | – | – | 6400 | – | % Inhibition Factor Xa at 100 μM (Human factor Xa): 6% at 100 μM
